Legend:
[1] = test system: patients with coronary artery disease; test: Cardiac contractility with methoxamine and nitrates, data of Mehmel et al. (Example 6); assay type: in vivo, human; conditions: load modifications
Experimental: (§1) The capability of the method of the present invention to assess cardiac contractility was evaluated using data from several experiments published in the literature and suitable for analysis. In this approach, afterload in the method was expressed as systolic pressure. Since different methodologies to measure cardiac contractility were used, the comparison between them was attained by analyzing the amount of changes (delta values) and were statistically treated using paired t test, ANOVA, correlation, and agreement between methods when applicable, as, for example, described in Lancet, Vol. 1, pages 307 to 310 (1986) by Bland et al.
Cardiovascular data was utilized from “The Linearity of the End-Systolic Pressure-Volume Relationship in Man and its Sensitivity for Assessment of Left Ventricular Function,” Circulation, Vol. 63, pages 1216 to 1222 (1981) by Mehmel et al. This study was performed in patients with coronary artery disease and with catheter-tip manometer and ventricular angiogram measurements.

[2] = test system: patients with coronary artery disease; conditions: load modifications; cited from earlier work
[3] = test system: normal subjects; test: Cardiac contractility with methoxamine and dobutamine, echocardiographic data of Borow et al. (Example 4); assay type: in vivo, human; conditions: ten normal subjects
Experimental: as §1
Cardiovascular data was utilized from “Sensitivity of End-Systolic Pressure-Dimension and Pressure-Volume Relations to the Inotropic State in Humans,” Circulation, Vol. 65, pages 988 to 997 (1982) by Borow et al. Ten normal subjects were studied echocardiographically.

[4] = test system: normal subjects; conditions: ten normal subjects; cited from earlier work
[5] = test system: Conscious Dog; test: Changes in preload, afterload and inotropic state, data of Mahler et al. (Example 13); assay type: in vivo
Experimental: as §1
Cardiovascular data was utilized from “Effects of Changes in Preload, Afterload and Inotropic State on Ejection and Isovolumic Phase Measures of Contractility in the Conscious Dog,” Am. J. Cardiol., Vol. 35, pages 623 to 634 (1975) by Mahler et al. In this study, increase in preload was attained by Ringer's solution infusion, and rise of blood pressure with phenylephrine administration. […] The method of this invention was less sensitive than the other indices to measure changes in the inotropic state induced with isoproterenol or propranolol.

[6] = test system: Conscious Dog; conditions: cited from earlier work
[7] = test system: patients with hyperthyroidism; test: Cardiac contractility with propranolol, data of Merillon et al. (Example 8); assay type: in vivo, human; conditions: administration of propranolol
Experimental: as §1
Cardiovascular data was utilized from “Left Ventricular Function and Hyperthyroidism,” Br. Heart J., Vol. 46, pages 137 to 143 (1981) by Merillon et al. In patients with hyperthyroidism and invasive assessment of ventricular function, the administration of propranolol produced a fall in cardiac contractility. This change was similar when the inotropic state was assessed by means of P/V ratio (−28%), ejection fraction (−19%), dP/dt (−20%), and dP/dt/TP (−19%). Use of the method of the present invention gave a value for the change in cardiac contractility of −17%.

[8] = test system: patients with hyperthyroidism; conditions: administration of propranolol; cited from earlier work
[9] = test system: patients, most of them with coronary artery disease; conditions: change vs control; cited from earlier work
[10] = test system: patients, most of them with coronary artery disease; test: Cardiac contractility under load or inotropic drugs, data of Takeuchi et al. (Examples 1 and 3); assay type: in vivo, human; conditions: change vs control
Experimental: as §1
Hemodynamic data was utilized from Takeuchi et al. (“Single-Beat Estimation of the Slope of the End-Systolic Pressure-Volume Relation in the Human Left Ventricle”. Circulation, Vol. 83, pages 202 to 212 (1991)).
Initially, to calibrate the model of the method of this invention, the average normal (or control state) values were used: • Preload (end-diastolic volume)=70 (Pre_adj) • Afterload (Systolic pressure)=109 (After_adj) • Stroke volume (SV)=40 (SV_adj) • Cardiac contractility (C)=100 (C_adj) Thereafter, the C value in each case during angiotension infusion was calculated using its corresponding value of preload, afterload and stroke volume. For instance, for the first case receiving angiotenison, where:
The first step was to obtain the edge value for the tetrahedron for the control state using the standard mathematical equation for the volume of a tetrahedron: Edge=^3{overscore (6*sv—adj)} Therefore, for the control state, Edge=^3{overscore (6*40)}=6.214465 The next step was to obtain the unitary (u) values of preload (pre_u) and afterload (after_u).
Pre—u=68*(6.214465/70)=6.036908 [formula] In order to obtain the unitary (u) value of C, using the equation derived herein for cardiac contractility [formula] Therefore, the value of C (C_v) for Case 1 is: [formula] Thus, during angiotensin treatment, the corresponding C values for Cases 1 to 8 were calculated using the method of this invention to be as follows: […]
Cardiovascular data was utilized from “Single-beat Estimation of the Slope of the End-Systolic Pressure-Volume Relation in the Human Left Ventricle,” Circulation, Vol. 83, pages 202 to 212 (1991) by Takeuchi et al. This study involved 25 patients, most of them with coronary artery disease. […] Hemodynamic modifications were measured with high-fidelity micromanometer and ventriculography. […] The increase in cardiac contractility using dobutamine induced changes measured by the method of this invention was 23% in comparison to the measurements made with ejection fraction of 15% and with ESP/ESV of 32%.

[11] = test system: Conscious Dogs; test: Contractile state with dobutamine and verapamil, data of Little et al. (Example 12); assay type: in vivo, dog
Experimental: as §1
Cardiovascular data was utilized from “Response of the Left Ventricular End-Systolic Pressure-Volume Relation in Conscious Dogs to a Wide Range of Contractile States,” Circulation, Vol. 78, pages 736 to 745 (1988) by Little et al. In this study, the contractile state was increased by dobutamine and decreased by verapamil.

[12] = test system: Conscious Dogs; conditions: cited from earlier work

O=[N+]([O-])O [Nitrate]
Change in cardiac contractility, method of this invention [1]: −1.7%
Change measured using ejection fraction [2]: 5.0%

COc1ccc(OC)c(C(O)C(C)N)c1 (stereo not drawn) [Methoxamine, methoxamine]
Change in cardiac contractility, method of this invention [3]: 1.4%
Change in cardiac contractility, method of this invention [1]: 3.3%
Change in cardiac contractility, ejection fraction [4]: −10.4%
Change measured using ejection fraction [2]: −5.0%

CC(C)NCC(O)COc1cccc2ccccc12 (stereo not drawn) [Propranolol, propranolol]
Method of This Invention Avg. Value ([5]; Example 13, animals, control 100.0): 95.2
Change, method of the present invention ([5]; conscious dog): −4.8%
Vcf Avg. Value (velocity of shortening) ([6]; Example 13, animals): 1.80 circulation per second
dP/dT Avg. Value ([6]; Example 13, animals): 3000 mm Hg per second
Change, Vcf ([6]; conscious dog): −18%
Change, dP/dt ([6]; conscious dog): −18%
Change, dP/dt DP40 ([6]; conscious dog): −13%
Change in cardiac contractility, method of the present invention [7]: −17%
Change in inotropic state, ESP/ESV [8]: −32%
Change in inotropic state, P/V ratio [8]: −28%
Change in inotropic state, dP/dt [8]: −20%
Change in inotropic state, dP/dt/TP [8]: −19%
Change in inotropic state, ejection fraction [8]: −19%
Change in inotropic state, velocity of shortening [8]: −32%

CC(CCc1ccc(O)cc1)NCCc1ccc(O)c(O)c1 (stereo not drawn) [Dobutamine, dobutamine]
Alteration in cardiac contractility, ESP/ESV [9]: 32%
Alteration in cardiac contractility, ejection fraction [9]: 15%
Change in cardiac contractility, method of this invention [3]: 27.5%
Alteration in cardiac contractility, method of this invention [10]: 23%
Method of This Invention Avg. Value ([11]; Example 12, animals, control 100.0): 111.7
Change in contractile state, method of this invention ([11]; dogs): 11.7%
ESP/ESV Avg. Value ([12]; Example 12, animals): 18.5 mm Hg per ml
EF Avg. Value ([12]; Example 12, animals, ejection fraction): 54.8 percentage
Change in contractile state, ESP/ESV ([12]; dogs): 150%
Change in contractile state, dP/dt ([12]; dogs): 34.1%
Change in contractile state, ejection fraction ([12]; dogs): 17.1%
Change in cardiac contractility, ESP/ESV [4]: 57.6%
Change in cardiac contractility, ejection fraction [4]: 12.8%

— patent US6939303B2, “Method and system of determining cardiac contractility” (Provecto Tecnico R-2000, Ca, priority 1999, dated 2005)
